Source: US9174939B2, “Soft rock inhibitors” (Amakem NV, priority 2011, dated 2015)

Assays:
ROCK II = ROCK II (Homo sapiens, UniProt O75116); assay: Kinase inhibition (ROCKI or ROCKII), 33P-ATP filter assay; assay type: biochemical; conditions: 120 min at room temperature
Protocol: C.1.1. Kinase inhibition (ROCKI or ROCKII)
Base Reaction buffer; 20 mM Hepes (pH 7.5), 10 mM MgCl2, 1 mM EGTA, 0.02% Brij35, 0.02 mg/ml BSA, 0.1 mM Na3VO4, 2 mM DTT, 1% DMSO—Required cofactors are added individually to each kinase reaction • Reaction Procedure: • 1. Prepare indicated substrate in freshly prepared Base Reaction Buffer • 2. Deliver any required cofactors to the substrate solution above • 3. Deliver indicated kinase into the substrate solution and gently mix • 4. Deliver compounds in DMSO into the kinase reaction mixture • 5. Deliver ^33P-ATP (specific activity 0.01 μCi/μl final) into the reaction mixture to initiate the reaction. • 6. […] Wash filters extensively in 0.1% Phosphoric acid.

[1] = test system: MLC-T18/S19 phosphorylation by endogenous ROCK in A7r5 cells; assay: Myosin Light Chain Phosphorylation assay (ELISA, A7r5 cells); assay type: cell-based; conditions: A7r5 rat smooth muscle cells, serum-free medium, phospho-MLC-T18/S19 ELISA
Protocol: C.1.4. Myosin Light Chain Phosphorylation assay
Rat smooth muscle cell line A7r5 is used. The endogenous expression of ROCK results in a constitutive phosphorylation of the regulatory myosin light chain at T18/S19. A7r5 cells were plated in DMEM supplemented with 10% FCS in multiwall cell culture plates. After serum starvation overnight, cells were incubated with compounds in serum-free medium.
Quantification of MLC-T18/S19 phosphorylation is assessed in 96 well-plates via ELISA using a phspho-MLC-T18/S19 specific antibody and a secondary detection antibody. Raw data were converted into percent substrate phosphorylation relative to high controls, which were set to 100%. IC50 values were determined using GraphPad Prism 5.01 software using a nonlinear regression curve fit with variable hill slope.

[2] = Stability assay in human plasma; assay type: in vitro ADME; conditions: 1 μM compound in human plasma, LC-MS/MS; read-out: t½ human plasma
Protocol: C.2.1. Stability Assay in Human and/or Rat Plasma
Compounds are incubated at a concentration of 1 μM in rat (mice, dog, monkey, minipig or rabbit) or human plasma. Samples are taken at fixed time points and the remnant of compound is determined by LC-MS/MS after protein precipitation. Half life is expressed in minutes.

[3] = Stability towards drug metabolizing enzymes in lung S9; assay type: in vitro ADME; conditions: human, lung S9 (from smokers) with NADPH, UDPGA, PAPS and GSH, read-out: t½ human lung S9
Protocol: C.2.2. Stability Towards Drug Metabolizing Enzymes in Lung S9
A 1 μM solution of the ROCK inhibitors is incubated with a reaction mixture containing lung S9 (from smokers) as well as the cofactors NADPH, UDPGA, PAPS and GSH. Samples are collected at 0, 15, 30 and 60 minutes post incubation. Negative control samples incubated with ROCK inhibitors and S9 fraction in the absence of cofactors are run in parallel. By using LC-MS/MS analysis, the percent of ROCK compounds remaining at each time point, the metabolic half-life of the ROCK compounds (expressed in minutes) and the metabolic half-life of the control compounds are determined.

[4] = Stability assay in rabbit aqueous humor; assay type: in vitro ADME; conditions: 1 μM in rabbit aqueous humor, LC-MS/MS; read-out: t½ Rabbit AH
Protocol: C.2.3. Stability Assay in Rabbit Aqueous Humor
Compounds are incubated at a concentration of 1 μM in rabbit aqueous humor (AH). Samples are taken at fixed time points and the remnant of compound is determined by LC-MS/MS after protein precipitation.

Chain of ROCK II (O75116 whole entry): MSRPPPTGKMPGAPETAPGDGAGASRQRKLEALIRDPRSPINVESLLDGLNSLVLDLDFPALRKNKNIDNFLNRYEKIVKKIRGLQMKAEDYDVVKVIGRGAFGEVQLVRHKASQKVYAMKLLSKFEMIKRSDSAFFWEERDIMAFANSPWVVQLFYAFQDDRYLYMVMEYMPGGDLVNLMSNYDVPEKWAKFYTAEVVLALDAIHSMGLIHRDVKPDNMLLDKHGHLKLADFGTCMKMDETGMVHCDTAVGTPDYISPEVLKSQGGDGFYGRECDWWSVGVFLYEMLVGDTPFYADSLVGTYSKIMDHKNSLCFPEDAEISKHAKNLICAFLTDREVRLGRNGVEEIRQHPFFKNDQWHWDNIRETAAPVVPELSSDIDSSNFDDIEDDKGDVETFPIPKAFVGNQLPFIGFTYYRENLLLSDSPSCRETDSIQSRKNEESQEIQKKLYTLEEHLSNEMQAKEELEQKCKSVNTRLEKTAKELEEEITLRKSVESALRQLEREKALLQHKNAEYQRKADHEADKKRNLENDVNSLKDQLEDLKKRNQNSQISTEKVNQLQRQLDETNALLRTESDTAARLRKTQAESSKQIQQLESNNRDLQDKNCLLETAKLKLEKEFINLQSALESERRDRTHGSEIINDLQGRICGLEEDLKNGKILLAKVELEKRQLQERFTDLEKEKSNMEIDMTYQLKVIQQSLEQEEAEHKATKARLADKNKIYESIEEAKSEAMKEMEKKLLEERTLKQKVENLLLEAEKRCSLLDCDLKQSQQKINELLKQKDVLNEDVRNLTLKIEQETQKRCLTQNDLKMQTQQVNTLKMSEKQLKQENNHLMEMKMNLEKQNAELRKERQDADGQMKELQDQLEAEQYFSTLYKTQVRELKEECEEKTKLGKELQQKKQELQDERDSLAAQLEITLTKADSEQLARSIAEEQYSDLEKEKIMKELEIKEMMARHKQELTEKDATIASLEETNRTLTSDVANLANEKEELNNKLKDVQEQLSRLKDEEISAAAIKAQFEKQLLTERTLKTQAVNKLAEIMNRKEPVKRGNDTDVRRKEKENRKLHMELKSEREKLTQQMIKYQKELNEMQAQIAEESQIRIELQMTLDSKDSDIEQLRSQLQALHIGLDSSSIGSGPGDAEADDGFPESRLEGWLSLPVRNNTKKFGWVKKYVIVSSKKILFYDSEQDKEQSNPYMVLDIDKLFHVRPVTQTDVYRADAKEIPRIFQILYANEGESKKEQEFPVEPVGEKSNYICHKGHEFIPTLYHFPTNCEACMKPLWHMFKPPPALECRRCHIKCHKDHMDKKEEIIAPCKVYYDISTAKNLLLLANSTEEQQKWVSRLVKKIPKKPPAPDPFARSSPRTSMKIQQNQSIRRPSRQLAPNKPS

For COC(=O)c1cc(F)cc(NC(=O)c2cccc(-c3cc(C(=O)Nc4ccncc4F)ccc3CN)c2)c1 [Compound 9], the IC50 (ROCK II) was < 10 nM.

For COC(=O)c1cc(NC(=O)c2cccc(-c3cc(C(=O)Nc4ccncc4F)ccc3CN)c2)ccc1C [Compound 20], the IC50 (ROCK II) was < 10 nM.

In the case of CCCOC(=O)c1cc(F)cc(NC(=O)c2cccc(-c3cc(C(=O)Nc4ccncc4F)ccc3CN)c2)c1 [Compound 10], the IC50 (ROCK II) is reported as < 100 nM and the IC50 [1] is reported as < 200 nM.

With CCCOC(=O)c1ccc(F)c(NC(=O)c2cccc(-c3cc(C(=O)Nc4ccncc4F)ccc3CN)c2)c1 [Compound 12] the IC50 (ROCK II) was < 10 nM and the IC50 [1] was < 200 nM.

With COC(=O)c1ccc(NC(=O)c2cccc(-c3cc(C(=O)Nc4ccncc4F)ccc3CN)c2)cc1 [Compound 3] the IC50 (ROCK II) was < 10 nM and the IC50 [1] was < 200 nM.

With CCCOC(=O)c1ccc(NC(=O)c2cccc(-c3cc(C(=O)Nc4ccncc4F)ccc3CN)c2)cc1C [Compound 21] the IC50 (ROCK II) was < 10 nM.

With COC(=O)c1csc(NC(=O)c2cccc(-c3cc(C(=O)Nc4ccncc4F)ccc3CN)c2)n1 [Compound 11] the IC50 (ROCK II) was < 10 nM.

In the case of COC(=O)c1cncc(NC(=O)c2cccc(-c3cc(C(=O)Nc4ccncc4F)ccc3CN)c2)c1 [Compound 7], the IC50 (ROCK II) is reported as < 10 nM.

With COC(=O)c1cccc(NC(=O)c2cccc(-c3cc(C(=O)Nc4ccncc4F)ccc3CN)c2)c1 [Compound 1] the IC50 (ROCK II) was < 10 nM, the IC50 [1] was < 200 nM and the half-life at 1 μM [2] was < 0.0833 h. For the same molecule, the half-life at 1 μM [3] was > 0.5 h and the half-life at 1 μM [4] was > 1 h.

With CCCOC(=O)Cc1cccc(NC(=O)c2cccc(-c3cc(C(=O)Nc4ccncc4F)ccc3CN)c2)c1 [Compound 19] the IC50 (ROCK II) was < 10 nM.

With COC(=O)c1ccc(NC(=O)c2cccc(-c3cc(C(=O)Nc4ccncc4F)ccc3CN)c2)o1 [Compound 15] the IC50 (ROCK II) was < 10 nM.

With CCOC(=O)c1nnc(NC(=O)c2cccc(-c3cc(C(=O)Nc4ccncc4F)ccc3CN)c2)o1 [Compound 14] the IC50 (ROCK II) was < 10 nM.

For COC(=O)Cc1ccc(NC(=O)c2cccc(-c3cc(C(=O)Nc4ccncc4F)ccc3CN)c2)cc1 [Compound 4], the IC50 (ROCK II) was < 10 nM and the IC50 [1] was < 200 nM.

In the case of NCc1ccc(C(=O)Nc2ccncc2F)cc1-c1cccc(NC(=O)c2ccc3c(c2)COC3=O)c1 [Compound 5], the IC50 (ROCK II) is reported as < 10 nM and the half-life at 1 μM [2] is reported as < 1 h.

For CCCOC(=O)c1cccc(NC(=O)c2cccc(-c3cc(C(=O)Nc4ccncc4F)ccc3CN)c2)c1 [Compound 8], the IC50 (ROCK II) was < 10 nM, the IC50 [1] was < 200 nM and the half-life at 1 μM [2] was < 0.0833 h. For the same molecule, the half-life at 1 μM [4] was > 1 h.

With COC(=O)c1ccc(F)c(NC(=O)c2cccc(-c3cc(C(=O)Nc4ccncc4F)ccc3CN)c2)c1 [Compound 6] the IC50 (ROCK II) was < 10 nM, the IC50 [1] was < 200 nM and the half-life at 1 μM [2] was < 1 h.

With COC(=O)c1ccc(C(=O)Nc2cccc(-c3cc(C(=O)Nc4ccncc4F)ccc3CN)c2)cc1 [Compound 16] the IC50 (ROCK II) was < 10 nM.

In the case of COC(=O)c1ccc(C(=O)Nc2cccc(-c3cc(C(=O)Nc4ccncc4F)ccc3CN)c2)nc1 [Compound 18], the IC50 (ROCK II) is reported as < 10 nM.

For CCCOC(=O)c1cc(NC(=O)c2cccc(-c3cc(C(=O)Nc4ccncc4F)ccc3CN)c2)ccc1C [Compound 22], the IC50 (ROCK II) was < 10 nM.

In the case of COC(=O)Cc1cccc(NC(=O)c2cccc(-c3cc(C(=O)Nc4ccncc4F)ccc3CN)c2)c1 [Compound 2], the IC50 (ROCK II) is reported as < 10 nM and the IC50 [1] is reported as < 200 nM.

With COC(=O)c1ccc(NC(=O)c2cccc(-c3cc(C(=O)Nc4ccncc4F)ccc3CN)c2)cc1C [Compound 13] the IC50 (ROCK II) was < 10 nM.

In the case of COC(=O)c1cccc(C(=O)Nc2cccc(-c3cc(C(=O)Nc4ccncc4F)ccc3CN)c2)c1 [Compound 17], the IC50 (ROCK II) is reported as < 10 nM and the IC50 [1] is reported as < 200 nM.
